These are literature values, as cited in patent publication US20150366901A1, “Methods of Treating Heart Failure” (The Trustees of the University of Pennsylvania, priority 2013, published 2015).

Where only a bound is given, the exact number is not on record here.

The conditions of data set [1]: nitrite formed from nitrate by oral cavity commensal bacteria.
Another data set relates to old mice. Conditions: supplementation for 3 weeks, 478 AU before, young counterparts 332 AU.
The next data set deals with healthy volunteers. Conditions: ingestion of 8 mmol, 3 hours post-ingestion.

Take `O=[N+]([O-])O` [nitrate]: where the note is “circulating nitrate”, the half-life in plasma is ~5 h. Besides, for the setting “concentrated in saliva, rest excreted by the kidneys”, the “share of circulating nitrate actively taken up by the salivary glands” value is recorded as “Up to 25%”. Consider `O=NO` [nitrite], for which the oral bioavailability in data set [1] is reported as > 95%. Turning to `O=NO` [sodium nitrite], the “aortic pulse wave velocity (PWV) after supplementation” value with old mice is 384 AU. With inorganic nitrate, the “aortic pulse wave velocity” value in the data set on healthy volunteers is reported as “decrease in aortic pulse wave velocity”.
